ChEMBL document CHEMBL5625206, “Design, synthesis, and evaluation of novel pleuromutilin aryl acrylate derivatives as promising broad-spectrum antibiotics especially for combatting multi-drug resistant gram-negative bacteria” (Eur J Med Chem, 2023)
In brackets after ≈: the same amount, converted by molar mass. Activity calls are given as the source filed them. The calls are words filed in the database; no cut-off is given here.

Columns and labels:
Staphylococcus aureus [1] = assay: Antibacterial activity against methicillin-resistant Staphylococcus aureus ATCC 33591 infected in neutropenic Kunming mouse model assessed as reduction in infection-induced inflammatory cell inflammation in liver at 10 mg/kg, ip measured after 7 days; type: functional, organism-based; details: time 7.0 day
[2] = Toxicity in fasted female Sprague-Dawley rat assessed as relative lung weight ratio at 148 mg/kg, IG measured for 14 days (reference value: 0.534 +/- 0025); type: organism-based; details: in vivo, po, 336 h, time 14 day
[3] = Half life in fasted Sprague-Dawley rat at 1 mg/kg, iv by LC-MS/MS analysis; type: ADME, organism-based; details: in vivo
Staphylococcus aureus [4] = assay: Antibacterial activity against methicillin-resistant Staphylococcus aureus ATCC 33591 infected in neutropenic Kunming mouse model assessed as restoration of infection- induced change in cell morphology in liver at 20 mg/kg, ip measured after 7 days; type: functional, organism-based; details: time 7.0 day
Staphylococcus aureus [5] = assay: Induction of extracellular electrical conductivity in methicillin-resistant Staphylococcus aureus ATCC 33591 at MIC incubated for 8 hrs relative to control
[6] = Toxicity in fasted female Sprague-Dawley rat assessed as relative ovary weight ratio at 224 mg/kg, IG measured for 14 days (reference value: 0.061 +/- 0.010); type: organism-based; details: in vivo, po, 336 h, time 14 day
[7] = Toxicity in fasted male Sprague-Dawley rat assessed as body weight at 148 mg/kg, IG measured after 7 days (reference value: 260.5 +/- 12.7 g); type: organism-based; details: in vivo, po, 168 h, time 7 day
Escherichia coli [8] = assay: Bactericidal activity against Escherichia coli ATCC 25922 assessed as reduction in colony count at 2 times MIC incubated for 24 hrs by time kill assay relative to control; type: functional
[9] = Toxicity in fasted male Sprague-Dawley rat assessed as relative kidney weight ratio at 500 mg/kg, IG measured for 14 days (reference value: 0.820 +/- 0.072); type: organism-based; details: in vivo, po, 336 h, time 14 day
Staphylococcus aureus [10] = assay: Induction of cell damage in methicillin-resistant Staphylococcus aureus ATCC 33591 assessed as intracellular pH at MIC incubated for 30 mins by fluorescence based analysis (reference value: 6.34 +/- 0.10); type: functional; details: 0.5 h
[11] = Toxicity in fasted female Sprague-Dawley rat assessed as body weight at 500 mg/kg, IG measured on same day (reference value: 165.2 +/- 8.1 g); type: organism-based; details: in vivo, po
Escherichia coli [12] = assay: Bactericidal activity against Escherichia coli ATCC 25922 assessed as reduction in colony count at MIC incubated for 24 hrs by time kill assay relative to control; type: functional
[13] = Toxicity in fasted male Sprague-Dawley rat assessed as relative heart weight ratio at 331 mg/kg, IG measured for 14 days (reference value: 0.396 +/- 0.043); type: organism-based; details: in vivo, po, 336 h, time 14 day
[14] = Toxicity in fasted female Sprague-Dawley rat assessed as relative heart weight ratio at 331 mg/kg, IG measured for 14 days (reference value: 0.429 +/- 0.016); type: organism-based; details: in vivo, po, 336 h, time 14 day
Staphylococcus aureus [15] = assay: Disruption of cell membrane integrity in methicillin-resistant Staphylococcus aureus ATCC 33591 at 4 times MIC incubated for 4 hrs by FESEM analysis; type: functional, organism-based
[16] = tested on: Mycoplasmoides gallisepticum; assay: Anti-mycoplasma activity against Mycoplasma gallisepticum MG-R-NCTC10115 assessed as bacterial growth inhibition incubated for 7 days; type: functional; details: MG-R-NCTC10115, 168 h, time 7 day
[17] = Toxicity in fasted male Sprague-Dawley rat assessed as body weight at 148 mg/kg, IG measured on same day (reference value: 212.7 +/- 13.2 g); type: organism-based; details: in vivo, po
[18] = Toxicity in fasted female Sprague-Dawley rat assessed as animal growth rate at 500 mg/kg, IG measured for 14 days (reference value: 29.85 +/- 4.97 g); type: organism-based; details: in vivo, po, 336 h, time 14 day
Escherichia coli [19] = assay: Induction of cell damage in Escherichia coli ATCC 25922 assessed as intracellular pH at MIC incubated for 30 mins by fluorescence based analysis (reference value: 6.05 +/- 0.10); type: functional; details: 0.5 h
[20] = Toxicity in fasted female Sprague-Dawley rat assessed as animal growth rate at 331 mg/kg, IG measured for 14 days (reference value: 29.85 +/- 4.97 g); type: organism-based; details: in vivo, po, 336 h, time 14 day
[21] = Toxicity in fasted male Sprague-Dawley rat assessed as relative testis weight ratio at 224 mg/kg, IG measured for 14 days (reference value: 0.993 +/- 0.052); type: organism-based; details: in vivo, po, 336 h, time 14 day
[22] = Toxicity in fasted male Sprague-Dawley rat assessed as relative spleen weight ratio at 224 mg/kg, IG measured for 14 days (reference value: 0.246 +/- 0.037); type: organism-based; details: in vivo, po, 336 h, time 14 day
[23] = Toxicity in fasted male Sprague-Dawley rat assessed as body weight at 500 mg/kg, IG measured after 7 days (reference value: 260.5 +/- 12.7 g); type: organism-based; details: in vivo, po, 168 h, time 7 day
Escherichia coli [24] = assay: Induction of cell damage in Escherichia coli ATCC 25922 assessed as decrease in intracellular ATP concentration at MIC incubated for 30 mins by fluorescence based analysis relative to control; type: functional; design: scale not given: the % may be the effect or the level left; details: 0.5 h
Enterococcus = assay: Antibacterial activity against vancomycin-resistant Enterococcus 80 clinical isolate assessed as bacterial growth inhibition incubated for 24 hrs by CLSI based broth microdilution method; type: functional
Escherichia coli [25] = assay: Disruption of cell membrane integrity in Escherichia coli ATCC 25922 assessed as appearance of pores on cell membrane at 4 times MIC incubated for 4 hrs by FESEM analysis; type: functional, organism-based
[26] = Toxicity in Sprague-Dawley rat assessed as animal death at 10 to 100 mg/kg, IG measured for 14 days; type: organism-based; details: in vivo, po, 336 h, dose 10-100 mg/kg, time 14 day
[27] = Toxicity in fasted female Sprague-Dawley rat assessed as body weight at 148 mg/kg, IG measured after 7 days (reference value: 188.2 +/- 9.2 g); type: organism-based; details: in vivo, po, 168 h, time 7 day
[28] = Toxicity in fasted female Sprague-Dawley rat assessed as relative spleen weight ratio at 331 mg/kg, IG measured for 14 days (reference value: 0.223 +/- 0.019); type: organism-based; details: in vivo, po, 336 h, time 14 day
[29] = Toxicity in fasted female Sprague-Dawley rat assessed as body weight at 224 mg/kg, IG measured on same day (reference value: 165.2 +/- 8.1 g); type: organism-based; details: in vivo, po
[30] = Toxicity in fasted female Sprague-Dawley rat assessed as relative heart weight ratio at 500 mg/kg, IG measured for 14 days (reference value: 0.429 +/- 0.016); type: organism-based; details: in vivo, po, 336 h, time 14 day
[31] = Toxicity in fasted male Sprague-Dawley rat assessed as relative lung weight ratio at 148 mg/kg, IG measured for 14 days (reference value: 0.437 +/- 0.064); type: organism-based; details: in vivo, po, 336 h, time 14 day
Pseudomonas aeruginosa = assay: Antibacterial activity against multidrug-resistant Pseudomonas aeruginosa 126 clinical isolate assessed as bacterial growth inhibition incubated for 24 hrs by CLSI based broth microdilution method; type: functional
[32] = Toxicity in fasted female Sprague-Dawley rat assessed as animal growth rate at 148 mg/kg, IG measured for 14 days (reference value: 29.85 +/- 4.97 g); type: organism-based; details: in vivo, po, 336 h, time 14 day
[33] = Toxicity in fasted female Sprague-Dawley rat assessed as relative heart weight ratio at 100 mg/kg, IG measured for 14 days (reference value: 0.429 +/- 0.016); type: organism-based; details: in vivo, po, 336 h, time 14 day

Q: What does the source list for `C=C[C@]1(C)C[C@@H](OC(=O)COC(=O)/C=C/c2ccc(N(C)C)cc2)[C@]2(C)[C@H](C)CC[C@]3(CCC(=O)[C@H]32)[C@@H](C)[C@@H]1O`?
A: Activity (Staphylococcus aureus [1]): inactive; Ratio [2]: 0.494; half-life [3]: 40.8 min; Activity (Staphylococcus aureus [4]): Active; Activity (Staphylococcus aureus [5]): 14.9%; Ratio [6]: 0.073; Activity [7]: 256.8 g; Activity (Escherichia coli [8]): 6.14 log10CFU/ml; Ratio [9]: 0.759; pH (Staphylococcus aureus [10]): 4.27; Activity [11]: 159.5 g; Activity (Escherichia coli [12]): 3.99 log10CFU/ml; Ratio [13]: 0.374; Ratio [14]: 0.471; Activity (Staphylococcus aureus [15]): Active; MIC [16]: 4 ng/mL (≈ 0.00725 µM); Activity [17]: 208.6 g; Activity [18]: 30.22%; pH (Escherichia coli [19]): 4.34; Activity [20]: 27.6%; Ratio [21]: 0.981; Ratio [22]: 0.229; Activity [23]: 251.3 g; Activity (Escherichia coli [24]): 50.75%; MIC (Enterococcus): 4 µg/mL (≈ 7.25 µM); Activity (Escherichia coli [25]): Active; Activity [26]: Non-Toxic; Activity [27]: 181.4 g; Ratio [28]: 0.247; Activity [29]: 168.5 g; Ratio [30]: 0.449; Ratio [31]: 0.415; MIC (Pseudomonas aeruginosa): 32 µg/mL (≈ 58 µM); Activity [32]: 31.79%; Ratio [33]: 0.438
